Results: publication PMC10965189, “Phytochemical investigation on the aerial parts of Veratrum versicolor f. viride Nakai and their biological activities” (Turkish Journal of Chemistry, 2023)
Read-outs that look alike come from different tables or passages of the source.

Columns and labels:
mushroom tyrosinase = test: Tyrosinase inhibition assay; assay type: biochemical; conditions: L-tyrosine, 37 °C 20 min, three experiments, read-out: Tyrosinase inhibitory activity IC50
Experimental: The reaction was carried out in a 0.1 M potassium phosphate buffer (pH 6.5) containing 1.5 mM L-tyrosine and 1250 unit/mL mushroom tyrosinase and the reaction mixture was incubated at 37 °C for 20 min. The test samples were assayed for tyrosinase inhibition by measuring its effect on tyrosinase activity using an ELISA reader at 490 nm. Arbutin was used as a positive control. The inhibitory activity of the sample was expressed as the concentration that inhibits 50% of the enzyme activity (IC50).

[1] = test system: B16F10 mouse melanoma cells; test: Measurement of relative melanin contents in α-MSH-stimulated cells; assay type: cell-based
[2] = target: T1, PPE (porcine pancreas elastase) (Sus scrofa, UniProt P00772); test: Elastase inhibition assay; assay type: biochemical
T1 construct: from tissue; host or cells: porcine pancreas
T1 sequence (P00772 27-266): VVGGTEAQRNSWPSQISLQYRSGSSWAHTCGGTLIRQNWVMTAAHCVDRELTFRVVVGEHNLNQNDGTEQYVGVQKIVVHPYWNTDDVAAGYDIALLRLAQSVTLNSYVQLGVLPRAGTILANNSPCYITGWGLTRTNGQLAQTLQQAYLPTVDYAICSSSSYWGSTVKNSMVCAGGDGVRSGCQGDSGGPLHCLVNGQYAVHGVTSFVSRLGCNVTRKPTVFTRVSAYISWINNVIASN
Experimental: The reaction was carried out in a 50 mM Tris-HCl buffer (pH 8.5) containing 1 mg/mL N-succinyl-(Ala)3-p-nitroanilide and 0.6 U/mL PPE (porcine pancreas elastase). The test sample was added to the reaction mixture, and elastase inhibition was incubated at 25 °C for 10 min. The change in absorbance was measured at 405 nm using an ELISA reader. Ursolic acid was used as a positive control. The inhibitory activity of the sample was expressed as the concentration that inhibits 50% of the enzyme activity (IC50).

[3] = test system: B16F10 mouse melanoma cells; test: Measurement of relative melanin contents in α-MSH-stimulated cells; assay type: cell-based; conditions: for activity at 25 µM / activity at 50 µM / activity at 100 µM / inhibition at 100 µM: Mus musculus, B16-F10; for activity at 25 µM / activity at 50 µM / activity at 100 µM: 100 nM α-MSH, 72 h; for activity at 100 µM / effect on melanin content compared to arbutin: 100 μM; for effect on melanin content compared to arbutin: arbutin 400 μM
Experimental: B16F10 mouse melanoma cells were cultured in DMEM medium containing 10% FBS and 1% penicillin-streptomycin in a 37 °C incubator with 5% CO2. The cells were seeded in 100-mm tissue culture dishes to be used for subsequent experiments.
B16F10 cells (1 × 10^5/well) were seeded in 6 well plates for 24 h. The cells were then incubated in the presence of 100 nM α-MSH, and treated with various concentrations (25, 50, and 100 μM) of sample for 72 h. After being washed twice with PBS, the cells were dissolved of 1 N NaOH and 10% DMSO, incubated at 60 °C for 1 h, and mixed to solubilize the melanin. Relative melanin content was determined with an ELISA reader by absorbance at 405 nm.

[4] = porcine pancreas elastase, N-succinyl-(Ala)3-p-nitroanilide, 25 °C 10 min, three experiments, read-out: Elastase inhibitory activity IC50
[5] = at a concentration of 100 μM, read-out: inhibition of melanogenesis
[6] = in the range of 50 ~ 100 μM, α-MSH-stimulated, read-out: inhibition percentage of melanin production

| IC50 (mushroom tyrosinase) [µM] | IC50 [2, 4] [µM] | Structure (SMILES) | activity at 400 µM ([1]; B16-F10, 100 nM α-MSH, 72 h) [%] | inhibition at 400 µM ([1]; B16-F10, α-MSH-stimulated, read-out: inhibition rate of melanin production) [%] | activity at 25 µM [3] [%] | activity at 50 µM [3] [%] | activity at 100 µM [3] [%] | IC50 [2] [µM] | inhibition at 100 µM [3, 5] [%] | effect on melanin content compared to arbutin ([3]; α-MSH-stimulated) | inhibition at 100 µM [3, 6] [%] |
| --- | --- | --- | --- | --- | --- | --- | --- | --- | --- | --- | --- |
| 474 ± 18.2 | – | OC[C@H]1O[C@@H](Oc2ccc(O)cc2)[C@H](O)[C@@H](O)[C@@H]1O [Arbutin] | 30.7 ± 3.34 | 69.2 | – | – | – | – | – | – | – |
| – | > 1000 | COc1cc(C(=O)O)ccc1O [Compound 1, Vanillic acid] | – | – | 91.3 ± 4.81 | 74.78 ± 0.69 | 64 ± 1.45 | – | – | – | – |
| 51.2 ± 5.5 | > 1000 | OC[C@H]1O[C@@H](Oc2cc(O)cc(/C=C/c3ccc(O)cc3)c2)[C@H](O)[C@@H](O)[C@@H]1O [Compound 2, trans-Piceid] | – | – | 136 ± 3.36 | 132 ± 6.52 | 116 ± 6.39 | – | – | – | – |
| 19.8 ± 0.77 | > 1000 | Oc1ccc(/C=C/c2cc(O)cc(O)c2)cc1 [Compound 4, Resveratrol] | – | – | 82.3 ± 1.18 | 27.3 ± 5.83 | 17.3 ± 0.01 | – | 70.4 to 91 | greatly decreased | 72.7 to 82.7 |
| 37.9 ± 1.04 | 292 ± 14.4 | O=c1cc(-c2ccc(O)c(O)c2)oc2cc(O)cc(O)c12 [Compound 5, Luteolin] | – | – | 18 ± 0.76 | 16.4 ± 1.65 | 8.99 ± 0.73 | – | 70.4 to 91 | greatly decreased | 83.5 to 91 |
| > 100 | > 1000 | O=c1cc(-c2ccc(O)cc2)oc2cc(O)cc(O)c12 [Compound 6, Apigenin] | – | – | 83.6 ± 3.01 | 63.2 ± 2.11 | 16.2 ± 1.52 | – | 70.4 to 91 | – | – |
| – | – | COc1cc(-c2cc(=O)c3c(O)cc(O)cc3o2)ccc1O [Compound 8, Chrysoeriol] | – | – | 37 ± 4.57 | 27.3 ± 0.8 | 23.4 ± 2.19 | – | 70.4 to 91 | greatly decreased | 72.6 to 76.6 |
| – | 96.9 ± 1.33 | C[C@H]1[C@H](C)CC[C@]2(C(=O)O)CC[C@]3(C)C(=CC[C@@H]4[C@@]5(C)CC[C@H](O)C(C)(C)[C@@H]5CC[C@]43C)[C@H]12 [Ursolic acid, reference compound] | – | – | – | – | – | – | – | – | – |

| Structure (SMILES) | IC50 (mushroom tyrosinase) [µM] | IC50 [2, 4] [µM] | activity at 400 µM ([1]; B16-F10, 100 nM α-MSH, 72 h) [%] | inhibition at 400 µM ([1]; B16-F10, α-MSH-stimulated, read-out: inhibition rate of melanin production) [%] | activity at 25 µM [3] [%] | activity at 50 µM [3] [%] | activity at 100 µM [3] [%] | IC50 [2] [µM] | inhibition at 100 µM [3, 5] [%] | effect on melanin content compared to arbutin ([3]; α-MSH-stimulated) | inhibition at 100 µM [3, 6] [%] |
| --- | --- | --- | --- | --- | --- | --- | --- | --- | --- | --- | --- |
| Oc1cc(O)cc(/C=C/c2ccc(O)cc2O)c1 [Compound 3, Oxyresveratrol] | 6.42 ± 0.45 | – | – | – | 118 ± 3.73 | 109 ± 1.96 | 29.6 ± 2.21 | > 1000 | 70.4 to 91 | – | – |
| COc1cc(-c2cc(=O)c3c(O)cc(O)cc3o2)cc(OC)c1O [Compound 7, Tricin] | > 100 | > 1000 | – | – | 65.2 ± 1.18 | 65.4 ± 1.41 | 56.4 ± 0.89 | – | – | – | – |
